According to patent US11167039B2, “MET antibody drug conjugates” (priority 2016, dated 2021):

What was measured:
HT-29 cells [1] = conditions: Strickler, J. H., et al., read-out: EC50 in a HT-29 killing assay; cited from earlier work
[2] = system: MET expressing tumor cells; conditions: reported, Strickler et al. 2016; cited from earlier work
[3] = system: HT-29 colon cancer tumor xenografts; experiment: HT-29 mouse xenograft model; type: in vivo; conditions: separate experiment(s), data not shown
Method: Female athymic nude mice age 6- to 7-weeks old are available commercially, including from Harlan Laboratories (Indianapolis, Ind.). The mice are allowed to acclimate for one week and fed ad libitum on a normal low fat (4.5%) diet, which may be continued for the duration of the study. Tumor cells may be purchased from ATCC and may be cultured in cell culture media such as RPMI 1640 (Life Technologies) with L-glutamine, 25 mM HEPES supplemented with 10% FBS and 1 mM Na Pyruvate. Cells may be detached, washed with serum free medium and then resuspended at a final concentration of 50×10^6 cells/mL in serum free RPMI 1640. Tumor cells, approximately 5×10^6, may be injected subcutaneously in the rear flank of subject mice in a 1:1 mixture of serum free growth medium and Matrigel (Becton Dickinson, Bedford, Mass.). Tumor and body weight measurements may be performed twice weekly. Prior to treatment, mice can be randomized based on tumor size using a randomization algorithm. Treatments may be started when the average tumor volume reaches 100 mm^3. […]
MET-ADCs and control hIgG4-MMAE may be prepared in Phosphate Buffered Saline (PBS) prior to dose. Tumor size may be determined by caliper measurements. […] Tumor volume data can be transformed to a log scale to equalize variance across time and treatment groups. Log volume data can be analyzed with two-way repeated measures ANOVA by time and treatment using SAS PROC MIXED software (SAS Institutes Inc, Cary, N.C.). Treatment groups are compared with the specified control group at each time point.

[4] = system: pan-AKT phosphorylation (pAKT) in Caki-1 cells; experiment: Phosphor-AKT bioassay for MET agonist activity in Caki-1 cells; type: cell-based; conditions: 5 μg/mL
Method: Because it has been reported that MET agonistic antibodies increased hepatocyte proliferation and toxicity, a phosphor-AKT assay may be used to test MET-ADCs for MET agonist activity. Briefly stated, Caki-1 cells may be starved overnight in serum-free medium with 0.1% BSA and then treated with ADCs or naked MET antibodies at 5 μg/mL for the desired durations. Cell lysates may be analyzed for phosphorylation of pan-AKT by MSD ELISA, for example.

HT-29 cells [5] = experiment: HT-29 cell-killing assay; type: cell-based, human; conditions: HT-29 cells
Method: Therefore, the HT-29 cell line may be used to determine if test MET-ADCs can kill MET overexpressing tumor cells in vitro.
Briefly described, 2-3×10^3 cells/well in 100 μL of culture medium may be plated in 96 well plates and incubated overnight at 37° C., 5% CO2. The MET-ADCs, MET antibody(ies), control MMAE or control hIgG4 conjugated to MMAE with cysteine conjugation antibody(ies) may be diluted 1:3 in serum-free culture medium starting from 100 nM (final) in 50 μL as 3× concentrations to the HT-29 cells. At the end of an additional 5-6 days of cell growth at 37° C. in a humidified incubator with 5% CO2, the plates may be equilibrated to room temperature for 30 minutes and 100 μL/well of CellTiter-Glo® reagent (Promega Corp., Fitchburg, Wis.) may then be added to assess cell viability. Cell viability may be determined by measuring luminescence.
Various tumor cell lines and normal human cells may be tested for MET-ADC induced cell killing activity essentially as described above in Example 10 as assessed for MET receptor density. MET cell surface density was determined by indirect immunofluorescence staining of cell surface antigens on cultured cells using QIFIKIT (Dako). […] Following a forty-five minute incubation, cells may be incubated for 1 hour on ice with FITC conjugated antibody diluted 1:50 in FACS buffer. Then cells may be washed and receptor numbers may be determined by indirect immunofluorescence staining of the QIFIKIT beads using a Becton Dickinson LSRII flow cytometer.

Substance | EC50 (HT-29 cells [1]) | approximate threshold of MET cell surface molecules for sensitivity [2] | inhibition of HT-29 tumor growth [3] | MET agonist activity (induction of pan-AKT phosphorylation) [4] | cell killing activity in HT-29 cells (HT-29 cells [5])
ABBV-399 | 9 nM | > 100,000 |  |  | 
Emibetuzumab |  |  | did not inhibit HT-29 tumor growth | low to no agonist activity | no significant cell killing activity
MET-ADC #6: emibetuzumab conjugated with maleimidocaproyl-valine-citrulline-p-aminobenzoyloxycarbonyl-monomethyl auristatin E (Mal-C-vc-PABC-MMAE) |  |  |  | significant increased agonist activity | less active than MET-ADC #1
